# Patent publication US10660333B2, “Substituted 2-heterocyclylimidazolylcarboxamides as pesticides” (BAYER CROPSCIENCE AKTIENGESELLSCHAFT, priority 2016, dated 2020)
# Where two headings read alike, the source gives them in different places.
# Assays:
# Myzus persicae [1] = test: Myzus persicae - oral test; format: in vivo; settings: for efficacy (aphids killed): 4 ppm, oral, after 5 days
# Outline: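 The active ingredient, dissolved in solvent and diluted with water, was mixed with IPL41 insect medium (33%+15% sugar) and sealed under parafilm. A mixed population of green peach aphids fed through the parafilm. Efficacy in % was scored after 5 days, where 100% means all aphids were killed.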
# Meloidogyne incognita = Meloidogyne incognita - test; format: in vivo; settings: 20 ppm, lettuce, after 14 days
# Protocol: Meloidogyne incognita—Test
# To produce a suitable active ingredient formulation, 1 part by weight of active ingredient is mixed with the stated amount of solvent and the concentrate is diluted to the desired concentration with water.
# Vessels are filled with sand, active ingredient solution, an egg/larvae suspension of the southern root-knot nematode (Meloidogyne incognita) and lettuce seeds. The lettuce seeds germinate and the plants develop. The galls develop on the roots.
# After 14 days, the nematicidal efficacy in % is determined by the formation of galls. 100% means that no galls were found; 0% means that the number of galls on the treated plants corresponds to the untreated control.
# Myzus persicae [2] = test: Myzus persicae - spray test; format: in vivo; settings: for efficacy (aphids killed): 500 g/ha, Chinese cabbage leaf discs, after 5 days
# Outline: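 Chinese cabbage leaf discs infested with all stages of green peach aphid sprayed with active ingredient formulated in emulsifier-containing water (1000 ppm emulsifier). Efficacy scored after 5 days as % aphids killed (100% = all, 0% = none).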
# [3] = log P by HPLC on reversed-phase (C18) columns, OECD Guideline 117; format: physicochemical; settings: for chromatographic logP: reversed-phase (C18) HPLC column
# Tetranychus urticae = Tetranychus urticae - spray test, OP-resistant; format: in vivo; settings: 500 g/ha, bean leaf discs, after 6 days
# Protocol: Tetranychus urticae—Spray Test, OP-Resistant
# To produce a suitable active ingredient formulation, 1 part by weight of active ingredient is dissolved with the specified parts by weight of solvent and made up to the desired concentration with water containing an emulsifier concentration of 1000 ppm. To produce further test concentrations, the formulation is diluted with emulsifier-containing water.
# Discs of bean leaves (Phaseolus vulgaris) infested with all stages of the greenhouse red spider mite (Tetranychus urticae) are sprayed with an active ingredient formulation of the desired concentration.
# After 6 days, the efficacy in % is determined. 100% means that all the spider mites have been killed; 0% means that no spider mites have been killed.
# [4] = HPLC RP C18, acidic range pH 2.7, 0.1% formic acid/acetonitrile
# [5] = HPLC RP C18, neutral range pH 7.8, ammonium hydrogencarbonate/acetonitrile
Structure (SMILES),"pest or weed control at 4 ppm (Myzus persicae [1]; Myzus persicae, po, 120 h, read-out: efficacy (aphids killed)) [%]",nematicidal efficacy (formation of galls) (Meloidogyne incognita) [%],"pest or weed control at 500 g/ha (Myzus persicae [2]; Myzus persicae, in Brassica rapa, foliar, 120 h, read-out: efficacy (aphids killed)) [%]","chromatographic logP ([3]; HPLC RP C18, acidic range pH 2.7, 0.1% formic acid/acetonitrile, read-out: logP[a])","chromatographic logP ([3]; HPLC RP C18, neutral range pH 7.8, ammonium hydrogencarbonate/acetonitrile, read-out: logP[n])",efficacy (aphids killed) (Myzus persicae [1]) [%],efficacy (spider mites killed) (Tetranychus urticae) [%],efficacy (aphids killed) (Myzus persicae [2]) [%],"logP[a] [3, 4]","logP[n] [3, 5]"
"CN(C(=O)c1cnc(C2=NOCCO2)n1C)c1cccnc1 [Example I-1-29, 2-(5,6-Dihydro-1,4,2-dioxazin-3-yl)-N,1-dimethyl-N-(pyridin-3-yl)-1H-imidazole-5-carboxamide]",100,100,100,0.45,0.76,–,–,–,–,–
CN(C(=O)c1cnc(C2CC(c3ccc(C(F)(F)F)cc3)=NO2)n1C)c1cccnc1 (stereo not drawn) [Example I-1-23],–,–,–,–,–,100,100,90,2.18,2.37
CCN(C(=O)c1cnc(C2CC(c3ccccc3)=NO2)n1C)c1cccnc1 (stereo not drawn) [Example I-1-8],–,–,–,–,–,100,90,100,1.74,1.92
